Results published in US12428406B2 (PMV Pharmaceuticals, Inc., priority 2019, dated 2025).

Biological target: T1, p53 Y220C (Homo sapiens, UniProt P04637, Y220C)
T1 construct: The recombinant protein was a truncation mutant containing only amino acids 94-312 of p53; made in house; host or cells: E. coli
Test: In vitro DNA binding activity assay (HTRF / TR-FRET): stabilization of p53 Y220C and increase of its DNA binding activity
Format: biochemical
Conditions: recombinant His-tagged p53 Y220C DNA binding domain (aa 94-312), biotin-labeled consensus DNA, incubated at 27° C. or 29° C. for 60 min
Summary of the method: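 Homogeneous time-resolved fluorescence with E. coli-derived p53 Y220C and biotinylated consensus DNA. Room-temperature incubations of 15 and 20 min precede reading. SC150 denotes the compound concentration required for 50% increased DNA binding.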

T1 sequence (P04637 94-312, change not shown): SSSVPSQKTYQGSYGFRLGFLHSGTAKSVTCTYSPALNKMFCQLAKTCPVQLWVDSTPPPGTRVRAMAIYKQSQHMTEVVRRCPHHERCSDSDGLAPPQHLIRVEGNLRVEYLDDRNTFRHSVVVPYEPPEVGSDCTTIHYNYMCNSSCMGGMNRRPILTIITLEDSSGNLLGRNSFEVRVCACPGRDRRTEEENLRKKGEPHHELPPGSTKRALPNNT

Structure (SMILES) | SC150 (concentration of the compound required to increase the DNA binding activity by 50%)
COC(=O)c1ccc(NCC#Cc2cc3c(N[C@H]4CCN(CC(=O)N(C)C)C[C@H]4F)cccc3n2CC(F)(F)F)c(OC)c1 [Compound 914A, methyl 4-{[3-(4-{[(3R,4S)-1-[(dimethylcarbamoyl)methyl]-3-fluoropiperidin-4-yl]amino}-1-(2,2,2-trifluoroethyl)-1H-indol-2-yl)prop-2-yn-1-yl]amino}-3-methoxybenzoate] | + (+ = 0 μM ≤ SC150 < 0.05 μM)
CS(=O)(=O)c1ccc(NCC#Cc2cc3c(NC4CCN(C(=O)CO)CC4)cccc3n2CC(F)(F)F)c(O)c1 [Compound 731A, 2-hydroxy-1-{4-[(2-{3-[(2-hydroxy-4-methanesulfonylphenyl)amino]prop-1-yn-1-yl}-1-(2,2,2-trifluoroethyl)-1H-indol-4-yl)amino]piperidin-1-yl}ethan-1-one] | + (+ = 0 μM ≤ SC150 < 0.05 μM)
COc1cc(S(C)(=O)=O)ccc1NCC#Cc1cc2c(N[C@@H]3CCN(C(=O)CN(C)C)C[C@@H]3F)cccc2n1CC(F)(F)F [Compound 855A, 2-(dimethylamino)-1-[(3S,4R)-3-fluoro-4-[(2-{3-[(4-methanesulfonyl-2-methoxyphenyl)amino]prop-1-yn-1-yl}-1-(2,2,2-trifluoroethyl)-1H-indol-4-yl)amino]piperidin-1-yl]ethan-1-one] | + (+ = 0 μM ≤ SC150 < 0.05 μM)
CNC(=O)c1ccc(NCC#Cc2cc3c(N[C@H]4CC[C@H](NC)CC4)cccc3n2CC(F)(F)F)c(OC)c1 [Compound 23A, 3-methoxy-N-methyl-4-{[3-(4-{[(1R,4R)-4-(methylamino)cyclo-hexyl]amino}-1-(2,2,2-trifluoroethyl)-1H-indol-2-yl)prop-2-yn-1-yl]amino}benzamide] | + (+ = 0 μM ≤ SC150 < 0.05 μM)
COc1cc(S(C)(=O)=O)ccc1NCC#Cc1cc2c(NC(=O)NC3CCN(C4CCOCC4)CC3)cccc2n1CC(F)(F)F [Compound 14A, 3-(2-{3-[(4-methanesulfonyl-2-methoxyphenyl)amino]prop-1-yn-1-yl}-1-(2,2,2-trifluoroethyl)-1H-indol-4-yl)-1-[1-(oxan-4-yl)piperidin-4-yl]urea] | ++++ (++++ = 0.2 μM ≤ SC150 < 1 μM)
COc1cc(S(C)(=O)=O)ccc1NCC#Cc1cc2c(NC3CCN(CC(COC(=O)C(C)C)OC(=O)C(C)C)CC3)cccc2n1CC(F)(F)F (centres unmarked) [Compound 588A, 1-{4-[(2-{3-[(4-methanesulfonyl-2-methoxyphenyl)amino]prop-1-yn-1-yl}-1-(2,2,2-trifluoroethyl)-1H-indol-4-yl)amino]piperidin-1-yl}-3-[(2-methylpropanoyl)oxy]propan-2-yl 2-methylpropanoate] | +++ (+++ = 0.1 μM ≤ SC150 < 0.2 μM)
CNS(=O)(=O)c1ccc(NCC#Cc2cc3c(NC4CCN(C)CC4)cccc3n2CC(F)(F)F)c(OC)c1 [Compound 484A, 3-methoxy-N-methyl-4-[(3-{4-[(1-methylpiperidin-4-yl)amino]-1-(2,2,2-trifluoroethyl)-1H-indol-2-yl}prop-2-yn-1-yl)amino]benzene-1-sulfonamide] | + (+ = 0 μM ≤ SC150 < 0.05 μM)
COc1cc(C(=O)NCC(COC(=O)C(C)C)OC(=O)C(C)C)ccc1NCC#Cc1cc2c(N[C@@H]3CCN(C)C[C@@H]3F)cccc2n1CC(F)(F)F (stereo partly drawn) [Compound 967A, 1-[(4-{[3-(4-{[(3S,4R)-3-fluoro-1-methylpiperidin-4-yl]amino}-1-(2,2,2-trifluoroethyl)-1H-indol-2-yl)prop-2-yn-1-yl]amino}-3-methoxyphenyl)formamido]-3-[(2-methylpropanoyl)oxy]propan-2-yl 2-methylpropanoate] | + (+ = 0 μM ≤ SC150 < 0.05 μM)
CNC(=O)c1ccc(NCC#Cc2cc3c(NC4CCN(C[C@H](CO)OC)CC4)cccc3n2CC(F)(F)F)c(OC)c1 [Compound 649A, 4-({3-[4-({1-[(2R)-3-hydroxy-2-methoxypropyl]piperidin-4-yl}amino)-1-(2,2,2-trifluoroethyl)-1H-indol-2-yl]prop-2-yn-1-yl}amino)-3-methoxy-N-methylbenzamide] | + (+ = 0 μM ≤ SC150 < 0.05 μM)
COc1cc(S(C)(=O)=O)ccc1NCC#Cc1cc2c(N[C@H]3CCNC[C@H]3F)cccc2n1CC(F)(F)F [Compound 848A] | + (+ = 0 μM ≤ SC150 < 0.05 μM)
COc1cc(C(=O)NCC(=O)O)ccc1NCC#Cc1cc2c(N[C@@H]3CCN(C)C[C@@H]3F)cccc2n1CC(F)(F)F [Compound 896A, (4-((3-(4-(((3S,4R)-3-fluoro-1-methylpiperidin-4-yl)amino)-1-(2,2,2-trifluoroethyl)-1H-indol-2-yl)prop-2-yn-1-yl)amino)-3-methoxybenzoyl)glycine] | + (+ = 0 μM ≤ SC150 < 0.05 μM)
CNC(=O)c1ccc(NCC#Cc2cc3c(N[C@H]4CC[C@H](N(C)C)CC4)cccc3n2CC(F)(F)F)c(O)c1 [Compound 98A, 3-hydroxy-N-methyl-4-{[3-(4-{[(1R,4R)-4-(dimethylamino)cyclo-hexyl]amino}-1-(2,2,2-trifluoroethyl)-1H-indol-2-yl)prop-2-yn-1-yl]amino}benzamide] | + (+ = 0 μM ≤ SC150 < 0.05 μM)
COc1cc(C(=O)O)ccc1NCC#Cc1cc2c(N[C@@H]3CCN(C)C[C@@H]3F)cccc2n1CC(F)(F)F [Compound 781A, 4-{[3-(4-{[(3S,4R)-3-fluoro-1-methylpiperidin-4-yl]amino}-1-(2,2,2-trifluoroethyl)-1H-indol-2-yl)prop-2-yn-1-yl]amino}-3-methoxybenzoic acid] | + (+ = 0 μM ≤ SC150 < 0.05 μM)
COc1cc(S(C)(=O)=O)ccc1NCC#Cc1cc2c(N[C@@H]3CCN(CC(C)O)C[C@@H]3F)cccc2n1CC(F)(F)F (mixture of isomers) [Compound 871A, 1-[(3S,4R)-3-fluoro-4-[(2-{3-[(4-methanesulfonyl-2-methoxyphenyl)amino]prop-1-yn-1-yl}-1-(2,2,2-trifluoroethyl)-1H-indol-4-yl)amino]piperidin-1-yl]propan-2-ol] | + (+ = 0 μM ≤ SC150 < 0.05 μM)
COc1cc(S(=O)(=O)N2CCN(C(C)=O)CC2)ccc1NCC#Cc1cc2c(NC3CCS(=O)(=O)CC3)cccc2n1CC(F)(F)F [Compound 1045A, 4-({2-[3-({4-[(4-acetylpiperazin-1-yl)sulfonyl]-2-methoxyphenyl}amino)prop-1-yn-1-yl]-1-(2,2,2-trifluoroethyl)-1H-indol-4-yl}amino)-1λ^6-thiane-1,1-dione] | + (+ = 0 μM ≤ SC150 < 0.05 μM)
COc1cc(C(=O)N2CCOCC2)ccc1NCC#Cc1cc2c(NC3CCN(C)CC3)cccc2n1CC(F)(F)F [Compound 491A] | + (+ = 0 μM ≤ SC150 < 0.05 μM)
COc1cc(S(N)(=O)=O)ccc1NCC#Cc1cc2c(N[C@H]3CC[C@H](N4CCC5(CCOCC5)CC4)CC3)cccc2n1CC(F)(F)F [Compound 418A, 3-methoxy-4-{[3-(4-{[(1R,4R)-4-{3-oxa-9-azaspiro[5.5]undecan-9-yl}cyclohexyl]amino}-1-(2,2,2-trifluoroethyl)-1H-indol-2-yl)prop-2-yn-1-yl]amino}benzene-1-sulfonamide] | + (+ = 0 μM ≤ SC150 < 0.05 μM)
COc1cc(S(C)(=O)=O)ccc1NCC#Cc1cc2c(NC(=O)NC3CCN(CCO)CC3)cccc2n1CC(F)(F)F [Compound 17A, 1-[1-(2-hydroxyethyl)piperidin-4-yl]-3-(2-{3-[(4-methanesulfonyl-2-methoxyphenyl)amino]prop-1-yn-1-yl}-1-(2,2,2-trifluoroethyl)-1H-indol-4-yl)urea] | ++++ (++++ = 0.2 μM ≤ SC150 < 1 μM)
COc1cc(C(=O)NC[C@@H](C)O)ccc1NCC#Cc1cc2c(N[C@@H]3CCN(C)C[C@@H]3F)cccc2n1CC(F)(F)F [Compound 957A, 4-((3-(4-(((3S,4R)-3-fluoro-1-methylpiperidin-4-yl)amino)-1-(2,2,2-trifluoroethyl)-1H-indol-2-yl)prop-2-yn-1-yl)amino)-N—((R)-2-hydroxypropyl)-3-methoxybenzamide] | + (+ = 0 μM ≤ SC150 < 0.05 μM)
COc1cc(C(N)=O)ccc1NCC#Cc1cc2c(NC3CCN(C[C@@H](O)CO)CC3)cccc2n1CC(F)(F)F [Compound 583A] | + (+ = 0 μM ≤ SC150 < 0.05 μM)
COCC(O)CN1CCC(Nc2cccc3c2cc(C#CCNc2ccc(C(N)=O)cc2OC)n3CC(F)(F)F)CC1 (centres unmarked) [Compound 620A, 4-{[3-(4-{[1-(2-hydroxy-3-methoxypropyl)piperidin-4-yl]amino}-1-(2,2,2-trifluoroethyl)-1H-indol-2-yl)prop-2-yn-1-yl]amino}-3-methoxybenzamide] | + (+ = 0 μM ≤ SC150 < 0.05 μM)
COc1cc(-c2ncco2)ccc1NCC#Cc1cc2c(NC3CCN(C)CC3)cccc2n1CC(F)(F)F [Compound 506A, 2-(3-{[2-methoxy-4-(1,3-oxazol-2-yl)phenyl]amino}prop-1-yn-1-yl)-N-(1-methylpiperidin-4-yl)-1-(2,2,2-trifluoroethyl)-1H-indol-4-amine] | + (+ = 0 μM ≤ SC150 < 0.05 μM)
COc1cc(S(=O)(=O)N2CC3(COC3)C2)ccc1NCC#Cc1cc2c(NC3CCS(=O)(=O)CC3)cccc2n1CC(F)(F)F [Compound 1047A, 4-[(2-{3-[(2-methoxy-4-{2-oxa-6-azaspiro[3.3]heptane-6-sulfonyl}phenyl)amino]prop-1-yn-1-yl}-1-(2,2,2-trifluoroethyl)-1H-indol-4-yl)amino]-1λ^6-thiane-1,1-dione] | + (+ = 0 μM ≤ SC150 < 0.05 μM)
